Test results taken from PubChem BioAssay AID248 (DTP/NCI, 2004).
Values joined by “and” are separate entries in the source; they are usually repeats but may differ in a detail not shown here. Identical values can stand only once. Inconclusive results and toxic doses are left out. Cut-off read from the data, not from the text of the source: active = T/C of 150% or more; inactive = T/C below 125%.

System: L1210 leukemia ip in BDF1 mice, survival T/C
Experiment: NCI In Vivo Anticancer Drug Screen. Data for tumor model L1210 Leukemia (intraperitoneal) in B6D2F1 (BDF1) mice
Conditions: endpoint: mean survival time, higher = longer survival
In short: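 Survival endpoint. Drug-treated group vs vehicle group, expressed as T divided by C. Tumor passaged by transplantation.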

[1] = dose: 50.0 mg/kg/injection, schedule: Q01DX009 (ip), vehicle: saline
[2] = dose: 100.0 mg/kg/injection, schedule: Q01DX001 (ip), vehicle: saline
[3] = dose: 100.0 mg/kg/injection, schedule: Q01DX009 (ip), vehicle: saline
[4] = dose: 200.0 mg/kg/injection, schedule: Q01DX001 (ip), vehicle: saline
[5] = dose: 200.0 mg/kg/injection, schedule: Q01DX009 (ip), vehicle: saline
[6] = dose: 400.0 mg/kg/injection, schedule: Q01DX001 (ip), vehicle: saline
[7] = dose: 100.0 mg/kg/injection, schedule: Q04DX003 (ip), vehicle: Klucel (hydroxypropylcellulose) (HPC)
[8] = dose: 200.0 mg/kg/injection, schedule: Q04DX003 (ip), vehicle: Klucel (hydroxypropylcellulose) (HPC)
[9] = dose: 400.0 mg/kg/injection, schedule: Q01DX009 (ip), vehicle: saline
[10] = dose: 400.0 mg/kg/injection, schedule: Q04DX003 (ip), vehicle: Klucel (hydroxypropylcellulose) (HPC)

Measured: T/C

NC(C=O)C(O)C(O)C(O)CO (centres undefined)
inactive: [1] 94 % of control | [2] 104 % of control and 93 % of control | [3] 94 % of control | dose: 125.0 mg/kg/injection, schedule: Q01DX Z (ip), vehicle: carboxymethylcellulose (CMC) 100 % of control | [4] 105 % of control and 102 % of control | [5] 94 % of control | dose: 250.0 mg/kg/injection, schedule: Q01DX Z (ip), vehicle: carboxymethylcellulose (CMC) 94 % of control | [6] 102 % of control and 96 % of control | dose: 500.0 mg/kg/injection, schedule: Q01DX Z (ip), vehicle: carboxymethylcellulose (CMC) 96 % of control | dose: 750.0 mg/kg/injection, schedule: Q01DX009 (ip), vehicle: saline 100 % of control | dose: 1000.0 mg/kg/injection, schedule: Q01DX Z (ip), vehicle: carboxymethylcellulose (CMC) 95 % of control | dose: 1500.0 mg/kg/injection, schedule: Q01DX009 (ip), vehicle: saline 104 % of control | dose: 3000.0 mg/kg/injection, schedule: Q01DX009 (ip), vehicle: saline 104 % of control and 107 % of control | dose: 5000.0 mg/kg/injection, schedule: Q01DX009 (ip), vehicle: saline 98 % of control

NS(=O)(=O)c1ccc(NC(=O)Nc2ccc(Cl)cc2[N+](=O)[O-])cc1
inactive: dose: 100.0 mg/kg/injection, schedule: Q01DX009 (ip), vehicle: Klucel (hydroxypropylcellulose) (HPC) 94 % of control | dose: 200.0 mg/kg/injection, schedule: Q01DX009 (ip), vehicle: Klucel (hydroxypropylcellulose) (HPC) 91 % of control | dose: 400.0 mg/kg/injection, schedule: Q01DX009 (ip), vehicle: Klucel (hydroxypropylcellulose) (HPC) 86 % of control

FC(F)(F)COC(Br)CBr (centres undefined)
inactive: dose: 15.0 mg/kg/injection, schedule: Q01DX001 (ip), vehicle: carboxymethylcellulose (CMC) 101 % of control | dose: 30.0 mg/kg/injection, schedule: Q01DX001 (ip), vehicle: carboxymethylcellulose (CMC) 93 % of control | dose: 60.0 mg/kg/injection, schedule: Q01DX001 (ip), vehicle: carboxymethylcellulose (CMC) 95 % of control

Nc1ccn(C2OC(COC3CCCCO3)C(OC3CCCCO3)C2OC2CCCCO2)c(=O)n1 (centres undefined)
inactive: [1] 95 % of control | dose: 100.0 mg/kg/injection, schedule: Q01DX005 (ip), vehicle: saline 110 % of control | [3] 104 % of control | dose: 200.0 mg/kg/injection, schedule: Q01DX005 (ip), vehicle: saline 94 % of control | [5] 101 % of control

O=C(O)C1Cc2ccccc2-c2ccccc21 (centres undefined)
inactive: dose: 75.0 mg/kg/injection, schedule: Q01DX001 (ip), vehicle: saline 102 % of control | dose: 150.0 mg/kg/injection, schedule: Q01DX001 (ip), vehicle: saline 88 % of control | dose: 300.0 mg/kg/injection, schedule: Q01DX001 (ip), vehicle: saline 100 % of control

COC(=O)c1ccc(SSc2ccc(C(=O)OC)cc2[N+](=O)[O-])c([N+](=O)[O-])c1
inactive: dose: 100.0 mg/kg/injection, schedule: Q01DX009 (ip), vehicle: saline with Tween-80 103 % of control | dose: 200.0 mg/kg/injection, schedule: Q01DX009 (ip), vehicle: saline with Tween-80 102 % of control | dose: 400.0 mg/kg/injection, schedule: Q01DX009 (ip), vehicle: saline with Tween-80 92 % of control

C=C(C)C1CCC2CC/C(=N\Nc3ccccc3C(=O)OC)C=C2C1 (centres undefined)
inactive: [7] 90 % of control | [8] 94 % of control

Cc1ccc(S(=O)(=O)OCCC2CCCCC2COS(=O)(=O)c2ccc(C)cc2)cc1 (centres undefined)
inactive: [3] 100 % of control | [7] 100 % of control | [5] 91 % of control | [8] 99 % of control | [9] 96 % of control | [10] 94 % of control

O=[N+]([O-])c1cccc2nonc12
inactive: dose: 3.12 mg/kg/injection, schedule: Q04DX002 (ip), vehicle: Klucel (hydroxypropylcellulose) (HPC) 93 % of control | dose: 6.25 mg/kg/injection, schedule: Q04DX002 (ip), vehicle: Klucel (hydroxypropylcellulose) (HPC) 109 % of control | dose: 12.5 mg/kg/injection, schedule: Q04DX002 (ip), vehicle: Klucel (hydroxypropylcellulose) (HPC) 102 % of control

COC(=O)C1=C2C(C(=O)OC)C(O)=C(C(=O)OC)C2C(C(=O)OC)C1=O (centres undefined)
inactive: [2] 97 % of control | [3] 100 % of control | dose: 100.0 mg/kg/injection, schedule: Q04DX003 (ip), vehicle: saline 107 % of control | [4] 105 % of control | [5] 97 % of control | dose: 200.0 mg/kg/injection, schedule: Q04DX003 (ip), vehicle: saline 104 % of control | [6] 103 % of control | [9] 95 % of control | dose: 400.0 mg/kg/injection, schedule: Q04DX003 (ip), vehicle: saline 104 % of control

Nc1ccccc1Sc1ccc(C(=O)O)cc1[N+](=O)[O-]
inactive: [7] 104 % of control | [8] 96 % of control | [10] 100 % of control
